Our source for the outcome values is PubChem BioAssay AID1189 (EPA DSSTox, 2008).

Activity calls are given as the source filed them.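 How the source made its calls: active means a tumor-causing dose value with its tumor site reported for any sex and species group of a rodent or other animal cancer study; inconclusive means only studies judged inadequate by the national testing program; inactive means tested in at least one study, none positive.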

The series is described as follows: DSSTox (CPDBAS) Carcinogenic Potency Database Summary SingleCellCall Results. The settings on record: animal chronic carcinogenicity bioassays, CPDB summary call. The method in brief:
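Categorical carcinogenicity call compiled from published chronic rodent and other animal cancer bioassays; based on the most positive result across experiments for each sex-species, assigned on minimal evidence for or against activity.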
Consider `Brc1cc(Br)c(-c2c(Br)c(Br)c(Br)c(Br)c2Br)c(Br)c1Br`, for which the outcome is “active; inactive”.
Then `Cc1csc(NNC=O)n1`, with “active”; and `CCNNC(=O)[C@@H]1[C@H](c2cc(OC)c(OC)c(OC)c2)c2cc3c(cc2[C@H](O)[C@H]1CO)OCO3`, with “inactive”; and `O=NN(CC(F)(F)F)CC(F)(F)F`, with “inactive”.
Then `CCc1cccc2c3c([nH]c12)C(CC)(CC(=O)O)OCC3` (centres undefined), with “inactive”; and `C=CC(=O)O`, with “inactive; active”; and `O=C([O-])c1cc(N=Nc2ccc(-c3ccc(N=Nc4c(O)ccc(N=Nc5cc(S(=O)(=O)[O-])ccc5[O-])c4[O-])cc3)cc2)ccc1O.[Cu+2].[Na+].[Na+]`, with “active; inactive”.
Then `Nc1ccc([N+](=O)[O-])cc1N`, with “inactive; active”; and `C/C=N/O`, with “inactive”.
Take `C=C/C=N/O`: the result was inactive.
Then `CC(C)(C)NCC(O)c1ccc(O)c(CO)c1` (centres undefined), with “active; inactive”; and `CCN=[N+](C)[O-]`, with “active”.
The result for `CC(C)(OCc1ccc(-c2ccc(Cl)cc2)cc1)C(=O)O` reads “active”; that for `CC(=O)Oc1ccccc1C(=O)O`, “inactive”; that for `NNCc1ccccc1`, “active”.
Then `CCCC/C=N/N(C)C=O`, with “active”; and `N#CN=C(N)N`, with “inactive; active”; and `O=P(O)(O)O`, with “inactive; active”.
As to `C=C(C)CCl`, the outcome was “active; inactive”.
In the case of `CCc1ccccc1`, the outcome was active.
The result for `COc1cc(N=Nc2ccccc2)ccc1N` reads “active; inactive”; that for `O=C(O)CC[N+](=O)[O-]`, “inactive; active”; that for `Cc1ccc(S(=O)(=O)Oc2ccc(N=Nc3ccc(-c4ccc(N=Nc5c(O)ccc6cc(S(=O)(=O)O)cc(S(=O)(=O)O)c56)c(C)c4)cc3C)cc2)cc1`, “active”.
The result for `OC(O)C(Cl)(Cl)Cl` reads “active; inactive”.
The result for `Cc1cnc(NC(=O)C2=C(O)c3ccccc3S(=O)(=O)N2C)s1` reads “inactive”.
In the case of `Oc1cccc(O)c1`, the result was inactive.
Consider `Cc1cc(N=Nc2ccccc2C)ccc1N`, for which the result was active.
Regarding `Cc1cc(Cc2cc(C)cc(C(C)(C)C)c2O)c(O)c(C(C)(C)C)c1`, the outcome was “inactive; active”.
The result for `c1ccc2c(c1)Oc1ccccc1O2` reads “inactive; active”; that for `CCCCN(CCCCO)N=O`, “active; inactive”.
For `O=C1C2(Cl)C3(Cl)C4(Cl)C(Cl)(Cl)C5(Cl)C3(Cl)C1(Cl)C5(Cl)C24Cl` (centres undefined), the outcome is “active; inactive”.
For `ClC1=C(Cl)[C@]2(Cl)[C@@H]3[C@H]4C=CC(C4)[C@@H]3C1(Cl)C2(Cl)Cl`, the result was active.
The result for `Cc1ccc(C)c(OCCCC(C)(C)C(=O)O)c1` reads “active; inactive”; that for `Cc1c(N(C)C)c(=O)n(-c2ccccc2)n1C`, “inactive”; that for `NS(=O)(=O)c1cc2c(cc1Cl)NCNS2(=O)=O`, “inactive; active”.
Turning to `Nc1cc(S(=O)(=O)[O-])cc2cc(S(=O)(=O)[O-])c(N=Nc3ccc(-c4ccc(N=Nc5c(S(=O)(=O)[O-])cc6cc(S(=O)(=O)[O-])cc(N)c6c5O)c(O)c4)cc3O)c(O)c12.[Cu].[Cu].[Na+].[Na+].[Na+].[Na+]`, the outcome is “active; inactive”.
Then `C=COC(C)=O`, with “active”; and `CCCCCl`, with “inactive”; and `COS(C)(=O)=O`, with “active; inactive”.
As to `CCN(N)C=O`, the result was active.
With `Oc1ccc(Cl)cc1Cc1ccccc1`, the outcome was active.
Then `O=C1O[C@H]([C@@H](O)CO)C(O)=C1O`, with “inactive”; and `CC(=O)c1ccc(S(=O)(=O)NC(=O)NC2CCCCC2)cc1`, with “inactive”.
Then `S=C(NC1CCCCC1)NC1CCCCC1`, with “inactive; active”; and `COc1ccc(N)c(OC)c1`, with “inactive”; and `O=C1CN(/N=C/c2ccc([N+](=O)[O-])o2)C(=O)N1`, with “active”.
The result for `C=C(F)F` reads “inactive”.
Consider `CCOC1=C(O)C(=O)O[C@@H]1[C@@H](O)CO`, for which the outcome was inactive.
Regarding `CC(C)Nc1nc(Cl)nc(NC(C)C)n1`, the outcome was inactive.
For `Cc1cc(O)c2c(c1O)C(=O)C13C(=C2O)C(=O)C2C(O)C1C1C(O)C3C(=O)C3=C(O)c4c(O)cc(C)c(O)c4C(=O)C321` (centres undefined), the outcome was active.
Then `CN(C)C(=S)[S][Bi]([S]C(=S)N(C)C)[S]C(=S)N(C)C`, with “inactive”; and `ClC(Br)Br`, with “active”.
With `CC(C)OC(=O)COc1ccc(Cl)cc1Cl`, the outcome was inactive.
Consider `COc1c(Cl)c(Cl)c([N+](=O)[O-])c(Cl)c1Cl`, for which the result was inactive.
Turning to `C[C@@H]1CC2(O[C@@H]2C)C(=O)O[C@@H]2CCN(C)C/C=C(/COC(=O)[C@]1(C)O)C2=O` (some centres undefined), the outcome is “active; inactive”.
Then `CN(C)c1ccc(C(=O)c2ccc(N(C)C)cc2)cc1`, with “active”; and `CN(C)C(=O)NC1CC2CC1C1CCCC21` (centres undefined), with “inactive”; and `O=c1[nH]c(=O)n(C2CCCO2)cc1F` (centres undefined), with “inactive”.
Then `CN[C@@H](C)[C@H](O)c1ccccc1`, with “inactive”; and `OC[C@H]1O[C@H](O[C@]2(CCl)O[C@H](CCl)[C@@H](O)[C@@H]2O)[C@H](O)[C@@H](O)[C@H]1Cl`, with “inactive”.
Then `O=C1NCCN1/N=C/c1ccc([N+](=O)[O-])o1`, with “active”; and `FCC(F)(F)F`, with “active”; and `Cc1ccc(C)c(N)c1`, with “active”.
Regarding `C/C=C\c1ccc(OC)cc1`, the result was inactive.
Then `O=C1C=C2C(=CCOC2O)O1` (centres undefined), with “inactive”; and `CC1CN(N=O)C(=O)NC1=O` (centres undefined), with “inactive”; and `CN(N=O)C(=O)c1ccccc1C(=O)N(C)N=O`, with “inactive”.
Take `CCCCNN`: the outcome was active.
Then `CC(=O)Nc1ccc(-c2ccccc2)cc1O`, with “inactive; active”; and `C[C@]12C/C(=C/O)C(=O)C[C@@H]1CC[C@@H]1[C@@H]2CC[C@@]2(C)[C@H]1CC[C@]2(C)O`, with “active”; and `CN(C)C(=O)Cl`, with “active”.
On to `CC(O)CN(N=O)C(=O)NCCCl` (centres undefined), for which the outcome was active.
Consider `NCCCCCC(=O)O`, for which the outcome was “inactive; active”.
The result for `COc1ccc2nc(S(=O)Cc3ncc(C)c(OC)c3C)[nH]c2c1` (centres undefined) reads “active”.
As for `ClCOCCOCCl`, the outcome was active.
As to `Nc1nc(=S)c2ncn([C@H]3C[C@H](O)[C@@H](CO)O3)c2[nH]1`, the outcome was active.
For the molecule `O=NN1CCOC(O)C1` (centres undefined), the outcome is “inactive; active”.
The result for `COC1=CC(=O)C[C@@H](C)[C@]12Oc1c(Cl)c(OC)cc(OC)c1C2=O` reads “active”; that for `NC(=O)CCCCn1ccc(NC(N)=NCC(F)(F)F)n1`, “active; inactive”.
Then `OCCBr`, with “active; inactive”; and `ClCc1cccnc1`, with “active”.
The result for `CCCN(CCC)c1c([N+](=O)[O-])cc(C(F)(F)F)cc1[N+](=O)[O-]` reads “active”.
Consider `Cl`, for which the result was inactive.
Then `c1ccc2cc(Nc3ccc(Nc4ccc5ccccc5c4)cc3)ccc2c1`, with “inactive; active”.
The result for `CCCCCCc1ccc(O)cc1O` reads “inactive”; that for `Cc1ccc(N)cc1Cl`, “inactive; active”.
The result for `CC(CN1c2ccccc2Sc2ccccc21)N(C)C` (centres undefined) reads “inactive”; that for `CC(=O)NNc1ccccc1`, “active”; that for `COc1cc(-c2ccc(N)c(OC)c2)ccc1N`, “active; inactive”.
As for `CCOC(=O)CC(SP(=S)(OC)OC)C(=O)OCC` (centres undefined), the result was inactive.
For the molecule `CCN(CC)C(=S)[S-].CCN(CC)C(=S)[S-].[Zn+2]`, the outcome was inactive.
The result for `OCc1ccco1` reads “active”.
With `[Cl-].[Cl-].[Cl-].[Fe+3]`, the result was inactive.
The result for `Cc1ccc(N=Nc2c(O)c(S(=O)(=O)O)cc3ccc(S(=O)(=O)O)cc23)c(C)c1` reads “active; inactive”.
Then `CCC1C(=O)OCC1Cc1cncn1C` (centres undefined), with “inactive”; and `O=P(OCCCl)(OCCCl)OCCCl`, with “active”; and `CC1(C)O[C@@H]2C[C@H]3[C@@H]4CCC5=CC(=O)C=C[C@]5(C)[C@@]4(F)[C@@H](O)C[C@]3(C)[C@]2(C(=O)CO)O1`, with “active”.
Take `[O]=[Bi]`: the outcome is “inactive; active”.
For the molecule `O=C(O)CCCC/C=C(\c1ccccc1)c1cccnc1`, the outcome was “inactive; active”.
The result for `C=C1C(CCl)(CCl)C2(Cl)C(Cl)C(Cl)C1(Cl)C2(Cl)Cl` (centres undefined) reads “active; inactive”; that for `C[C@]12CC[C@@H]3c4ccc(O)cc4CC[C@H]3[C@@H]1CC[C@@H]2O`, “inactive”.
The result for `FC(Cl)C(F)(F)F` (centres undefined) reads “inactive”; that for `CCN(CC)c1ccc(N=Nc2cc[n+]([O-])cc2)cc1`, “active”; that for `NN`, “active”.
The result for `N#Cc1ccc(C2CCCc3cncn32)cc1` (centres undefined) reads “inactive; active”.
With `[Na+]`, the outcome was inactive.
Then `CCNC(=O)N(CCN(C)C)N=O`, with “active”; and `CN1C(=O)C[C@@H](C(=O)N[C@@H](Cc2cnc[nH]2)C(=O)N2CCC[C@H]2C(N)=O)NC1=O`, with “inactive; active”; and `CC(=O)Nc1ccc(S(=O)(=O)c2ccc(NC(C)=O)cc2)cc1`, with “active; inactive”.
